# Test results: patent US9532961B2, “Method and kit for administering γ-glutamyl-D-cysteine for the prevention of reperfusion injury following ischemic stroke” (Rosalind Franklin University of Medicine and Science, priority 2005, dated 2017)
# “Also recorded” adds a separate entry of the source.
# Experiments:
# in vitro = in vitro ADME; settings: rat
# Description: Separate peaks representing the intact peptide and its metabolites are plotted as a function of time. The area under the curve for selected peaks may be measured and compared to appropriate standards to quantify the concentration of γ-Glu-Cys and its metabolites.
# Loss of γ-Glu-Cys from the incubation medium, and the appearance of Cys and oxidized γ-Glu-Cys were quantified using HPLC to measure degradation, hydrolysis, and oxidation respectively. The ½-time for degradation of γ-Glu-Cys is 11.3±1.2 mins. Values are mean±SD. N=3 separate experiments.
# Loss of γ-Glu-D-Cys from the incubation medium, and the appearance of D-Cys and oxidized γ-Glu-D-Cys were quantified using HPLC to measure degradation, hydrolysis, and oxidation respectively. Values are mean±SD. N=3 separate experiments.
# Comparing the initial rates of degradation confirmed that γ-Glu-D-Cys is degraded more slowly (0.12±0.02 vs 0.22±0.02 mM/min, P=0.006). Values are mean±SD. N=3 separate experiments.
# Values are mean±SD. N=3 separate experiments. * indicates significant difference at P<0.05.
# As a measure of stability, the initial velocities of degradation for γ-Glu-Cys and γ-Glu-D-Cys were compared and found to be 0.22±0.03 vs. 0.12±0.02 (mM/min), respectively.
# FIG. 11 is a graph showing the temporal comparison of degradation, oxidation and hydrolysis of γ-Glu-Cys. FIG. 12 is a graph showing the temporal comparison of degradation, oxidation, and hydrolysis of the analog γ-Glu-D-Cys. FIG. 13 is a graph comparing the degradation of γ-Glu-Cys and γ-Glu-D-Cys, as measured by the loss of intact peptide as a function of time of incubation. FIG. 14 is a graph comparing the hydrolysis of γ-Glu-Cys and γ-Glu-D-Cys, by appearance of cysteine and D-cysteine respectively, as a function of time. Mean±SE; * indicates significant difference at P<0.05. FIG. 15 is a graph comparing the oxidation of γ-Glu-Cys and γ-Glu-D-Cys, by appearance of oxidized γ-Glu-Cys and oxidized γ-Glu-D-Cys respectively, as a function of time. Mean±SE. * indicates P<0.05.
# [1] = Oxiselect Total Antioxidant Capacity Assay in rat serum (1-9%) in Tris Buffer; settings: 0.0625, 0.125, 0.3125 and 0.625 mM, averaged
# Description: (§1) FIGS. 16a and 16b indicate that the antioxidant capacities of γ-Glu-Cys and γ-Glu-D-Cys are the same using an in vitro assay. Antioxidant capacities were measured with the Oxiselect Total Antioxidant Capacity Assay Kit, using uric acid as a standard. […] Values are mean±SE. N=3 separate experiments for the 0.78, 1.56, and 3.13 mM concentrations. N=2 separate experiments for the 0.39 mM concentration. *P=0.047.
# [2] = Oxiselect Total Antioxidant Capacity Assay in human plasma (90-99%)
# Description: as §1
# Human red blood cells = assay: Spontaneous hemolysis of human red blood cells (hemoglobin release at 540 nm); type: cell-based; settings: 37° C.; for difference in cytoprotective effect, γ-Glu-Cys vs γ-Glu-D-Cys: 1 mM each; for difference in cytoprotective effect, γ-Glu-Cys vs γ-Glu-D-Cys / toxicity (increase of hemolysis): 190 minutes; for spontaneous hemolysis / toxicity (increase of hemolysis): 1 mM; for spontaneous hemolysis: 5% red blood cells, phosphate buffer pH 7.4, 190 minutes
# Description: Human red blood cells (5%) were incubated in isotonic phosphate buffer, pH 7.4 for 190 minutes at 37° C. in the presence or absence of γ-Glu-Cys and γ-Glu-D-Cys, and spontaneous hemolysis was quantified by measuring hemoglobin release spectrophotometrically at 540 nm. […] Values are mean±SE for 4 observations.
# [3] = test system: cultured blood-brain barrier endothelial cells; assay: Lactate dehydrogenase (LDH) release from cultured blood-brain barrier endothelial cells under ischemia and reperfusion; type: cell-based, bovine; settings: 1 mM; ischemia 1.5 hrs, reperfusion 3.0 hrs; P<0.05
# From the text: FIG. 7 is a bar graph of data showing that the antioxidant gamma-glutamyl cysteine (γ-Glu-Cys) inhibits cell damage to cerebral capillary endothelial cells cultured under conditions of ischemia and reperfusion.
# Cultured blood-brain barrier cells can be used as an in vitro cellular model to confirm that Na/Ca exchange may operate in the reverse direction under conditions simulating reperfusion, following transient ischemia. Cerebral capillary endothelial cells are isolated from bovine brain by the method of Meresse et al. (42), or purchased from Cell Systems Corporation (Kirkland, Wash.). Cells are grown and maintained (up to passage 5) on collagen type I- and fibronectin-coated tissue culture flasks in Eagle's minimal essential medium supplemented with 10% fetal bovine serum (54, 62). To form a polarized endothelium, cells are seeded on cluster plate inserts and incubated in the presence of an astrocyte conditioned medium supplemented with cAMP, as previously described (4, 54). […]
# Cultured blood-brain barrier endothelial cells were incubated under conditions of ischemia (1.5 hours) followed by reperfusion (3.0 hours), in the presence and absence of γ-glutamyl cysteine (γ-Glu-Cys). Cellular damage was detected by measuring release of lactate dehydrogenase (LDH) into the incubation medium, following treatment. […]
# [4] = test system: cultured bovine blood-brain barrier endothelial cells; assay: Intracellular sodium (sodium green fluorescence) in cultured blood-brain barrier cells under simulated ischemia-reperfusion; type: cell-based; settings: 100 μM; ischemia 90 mins, reperfusion 30 mins
# Description: FIG. 3 is a bar graph of data showing that when cerebral capillary endothelial cells are exposed to ischemic conditions, intracellular sodium concentration increases and remains elevated during reperfusion; the elevation in intracellular sodium is prevented by pharmacological inhibition of the Na/H antiporter. Cultured bovine blood-brain barrier cells were exposed to conditions simulating ischemia and reperfusion, by incubating in 95% N2/5% CO2 without glucose (90 mins) at pH 6.8, followed by room air/5% CO2 with 5.6 mM glucose (30 mins) at pH 7.4, respectively. […] The rise in intracellular sodium observed during reperfusion was prevented by inhibiting Na/H exchange (100 μM dimethylamiloride, DMA). *P<0.05. Values are mean±SD. […] Intracellular sodium was measured with fluorescent imaging, using sodium green. […]
# Cultured bovine blood-brain barrier endothelial cells were exposed to conditions simulating ischemia and reperfusion as described in Example 2. Sodium fluorescence is measured in cultured bovine blood-brain barrier endothelial cells under the following conditions: 1) control (120 minutes), 2) simulated ischemia (120 minutes), 3) simulated ischemia (90 minutes) followed by simulated reperfusion (30 minutes), 4) simulated ischemia/reperfusion (90/30 minutes), in the presence of an inhibitor (dimethylamiloride, 100 μM) of Na/H exchange. […]
# [5] = test system: cultured bovine blood-brain barrier endothelial cells; assay: Intracellular calcium (Fluo-4 fluorescence) in cultured blood-brain barrier cells under simulated ischemia-reperfusion; type: cell-based; settings: 100 μM DMA (Na/H antiport inhibition), listed as DMA
# Description: FIG. 4 is a bar graph of data showing that when cerebral capillary endothelial cells are exposed to ischemic conditions, intracellular calcium concentration increases and remains elevated during reperfusion; the elevation in intracellular calcium is prevented by pharmacological inhibition of the Na/H antiporter. Cultured bovine blood-brain barrier cells were treated as described above (FIG. 2). […] The rise in intracellular calcium observed during reperfusion was prevented by inhibiting Na/H antiport (100 μM DMA). *P<0.05 compared to control. +P<0.05 compared to reperfusion. Values are mean±SD. Intracellular calcium was measured with fluorescent imaging, using Fluo-4.
# FIG. 5 is a bar graph of data showing that when cerebral capillary endothelial cells are exposed to ischemic conditions, intracellular calcium concentration increases and remains elevated during reperfusion; the elevation in intracellular calcium is prevented by pharmacological inhibition of reverse movement of the Na/Ca exchanger. Cultured bovine blood-brain barrier cells were treated as described above (FIG. 2). […] The rise in intracellular calcium observed during reperfusion was prevented by inhibiting reverse movement of Na/Ca exchange (20 μM KB-R7943). *P<0.05 compared to control. +P<0.05 compared to reperfusion. Values are mean±SD. Intracellular calcium was measured with fluorescent imaging, using Fluo-4. […]
# [6] = test system: caspase 3 activity in cultured bovine blood-brain barrier endothelial cells; assay: Caspase 3 activity in cultured blood-brain barrier cells under simulated ischemia-reperfusion; type: cell-based; settings: 100 μM; 30 mins ischemia, 24 hours reperfusion; P<0.05 from I/Rep
# From the text: FIG. 6 is a bar graph of data showing that ischemia followed by reperfusion of cultured cerebral capillary endothelial cells results in an increase of caspase 3 activity that is inhibited by an inhibitor of Na/H exchange. Caspase 3 activity is expressed in cultured blood-brain barrier cells exposed to conditions simulating ischemia-reperfusion. […] I/Rep is ischemia plus reperfusion; I/R Na inh is ischemia-reperfusion with inhibitor; I/R Cp inh is ischemia-reperfusion with a specific caspase inhibitor. Values are mean±SD for 3 observations.
# Cultured blood-brain barrier cells can be exposed to conditions simulating ischemia and reperfusion, by a method similar to that reported in the literature (25). The precise composition of the incubation medium varies, depending upon the experimental protocols. In general, however, cells are incubated at 37° C. first in an ischemic medium (without glucose, pH 6.8) equilibrated with an atmosphere of 95% N2 and 5% CO2, followed by simulated reperfusion in a control medium (5.6 mM glucose, pH 7.4) equilibrated with room air and 5% CO2. […]
# Caspase 3 activity was measured in cultured bovine blood-brain barrier endothelial cells under control conditions (24.5 hours), simulated ischemia (24.5 hours), or ischemia (0.5 hours) followed by reperfusion (24 hours, I/Rep) as described in Example 2. […]
# [7] = 0.39 mM in human plasma (90-99%), N=2, P=0.047
# [8] = 0.78, 1.56, and 3.13 mM in human plasma (90-99%), N=3
initial rate (velocity) of degradation (in vitro; 6.25 mM) [mM/min],half-life at 6.25 mM (in vitro; serum) [min],SMILES,"antioxidant capacity (uric acid equivalents), γ-Glu-Cys vs γ-Glu-D-Cys [1]","antioxidant capacity, γ-Glu-Cys vs γ-Glu-D-Cys [2, 7]","antioxidant capacity, γ-Glu-Cys vs γ-Glu-D-Cys [2, 8]","difference in cytoprotective effect, γ-Glu-Cys vs γ-Glu-D-Cys (Human red blood cells)",spontaneous hemolysis (Human red blood cells),toxicity (increase of hemolysis) (Human red blood cells),LDH release (cellular damage) [3],"intactness in serum for 1 minute (in vitro; 1 min, 6.25 mM)",rise in intracellular sodium observed during reperfusion [4],rise in intracellular calcium observed during reperfusion [5],increase in caspase 3 activity [6]
0.12 ± 0.02,–,"N[C@@H](CCC(=O)N[C@H](CS)C(=O)O)C(=O)O [γ-Glu-D-Cys, γ-glutamyl-D-cysteine]",not to be significantly different from each other,marginal difference,a significant difference was not detected,no significant difference in their cytoprotective effect,significantly inhibit spontaneous hemolysis,not toxic under the experimental conditions,–,–,–,–,–
–,11.3 ± 1.2,"N[C@@H](CCC(=O)N[C@@H](CS)C(=O)O)C(=O)O [γ-Glu-Cys, γ-glutamyl cysteine]",not to be significantly different from each other,marginal difference,a significant difference was not detected,no significant difference in their cytoprotective effect,significantly inhibit spontaneous hemolysis,not toxic under the experimental conditions,reduced LDH release; also recorded: cellular damage was significantly reduced,remains primarily intact for 1 minute in serum,–,–,–
–,–,CN(C)c1nc(N)c(C(=O)N=C(N)N)nc1Cl [dimethylamiloride],–,–,–,–,–,–,–,–,prevented; also recorded: inhibits the rise in intracellular sodium,prevented; also recorded: inhibits the rise in intracellular calcium,inhibited
